Measured values from patent US20170233414A1, “DERIVATIVES OF BODIPY” (OREGON HEALTH & SCIENCE UNIVERSITY, priority 2016, published 2017).
Like-named read-outs stand apart in the source and are kept apart here.

Assay: Fluorescence properties and quantum yield measurements of the BAA library
Assay type: physicochemical
Set-up: FWHM (full-width-at half max): unit not given here
Method: General Instruments. Synthesized sample purification was performed with an Agilent 1260 Infinity HPLC utilizing a C18 column (150mm×21.2 mm). MS (HRMS, ESI) spectra data was collected with an Agilent 6244 TOF LC/MS with diode array detector VL+ and C18 column (4.6 mm×50 mm). Absorbance and fluorescence data were measured on a SpectraMax M5 Microplate reader. NMR spectra, ^1H and ^13C, were recorded on a Bruker ARK400 spectrometer. BAA microscopy screening in cells for organelle specificity and signal-to-background ratio was completed with an Axio Zeiss Light Microscope and 63× oil immersion objective.
Fluorescence Properties and Quantum Yield Measurements. Spectroscopic characterizations were performed in anhydrous DMSO in polystyrene 96 well plate. Analysis included the maximum absorbance wavelength, maximum fluorescence emission wavelength, full-width-at half max, and quantum yield. Quantum yields (φfl) were determined by comparing the area under the emission spectrum of the BAA compound to a reference fluorophore solution at three concentrations using equation 1, where Grad represents the gradient from the plots of integrated fluorescence intensity vs absorbance at three concentrations and q is the refractive index of the solvent. Fluorescein in 0.1 M NaOH (φfl=0.91)^3 was the reference for samples with a max absorbance up to 510 nm, where an excitation of 470 nm was used with the emission integrated between 490 to 800 nm. Rhodamine B in ethanol (φfl=0.70) was the reference for samples with a max absorbance between 511-595 nm, where an excitation of 525 nm was used with the emission integrated between 545 to 800 nm. Cresyl violet in methanol (φfl=0.54)^4 was the reference for samples with a max absorbance above 595 nm, where an excitation of 570 nm was used with the emission integrated between 590 to 800 nm.

[1] = anhydrous DMSO, polystyrene 96 well plate
[2] = anhydrous DMSO, relative to reference fluorophore at three concentrations

Structure (SMILES) | Stokes Shift (anhydrous DMSO) | λmax ABS [1] | λmax EM [1] | FWHM (full-width-at half max) (anhydrous DMSO, emission) | φfl (quantum yield) [2] | FWHM (full-width-at half max) | Stokes Shift | λmax ABS | λmax EM | φfl (quantum yield)
CC1=CC(C=Cc2ccc(Cl)nc2)=[N+]2C1=Cc1ccc(CCC(=O)O)n1[B-]2(F)F [BAA-39a] | 51 nm | 606 nm | 657 nm | 79 | 0.19 |  |  |  |  | 
CC1=CC(C=Cc2c[nH]c3ccc(OCc4ccccc4)cc23)=[N+]2C1=Cc1ccc(CCC(=O)O)n1[B-]2(F)F [BAA-48a] | 38 nm | 603 nm | 641 nm | 60 | 0.45 |  |  |  |  | 
COc1cc(OCc2ccccc2)ccc1/C=C/C1=[N+]2C(=Cc3ccc(CCC(=O)O)n3[B-]2(F)F)C(C)=C1 [BAA-21a] | 26 nm | 585 nm | 611 nm | 46 | 0.51 |  |  |  |  | 
COc1cc(/C=C/C2=[N+]3C(=Cc4ccc(CCC(=O)O)n4[B-]3(F)F)C(C)=C2)ccc1OCc1ccc(F)cc1 [BAA-22a] | 17 nm | 585 nm | 602 nm | 49 | 0.39 |  |  |  |  | 
CC1=CC(C=Cc2cnc(-c3ccc(Cl)cc3)s2)=[N+]2C1=Cc1ccc(C(=Cc3cnc(-c4ccc(Cl)cc4)s3)CC(=O)O)n1[B-]2(F)F [BAA-34b] | 11 nm | 570 nm | 581 nm | 31 | 0.96 |  |  |  |  | 
COc1cc(OC)c(/C=C/C2=[N+]3C(=Cc4ccc(CCC(=O)O)n4[B-]3(F)F)C(C)=C2)c(OC)c1 [BAA-5a] | 23 nm | 592 nm | 615 nm | 47 | 0.83 |  |  |  |  | 
CC1=CC(/C=C/c2ccc(-c3ccccc3)cc2)=[N+]2C1=Cc1ccc(CCC(=O)O)n1[B-]2(F)F [BAA-17a] |  |  |  |  |  | 42 | 12 nm | 579 nm | 591 nm | 0.59
CC1=CC(C=Cc2cccc(N3CCCC3)n2)=[N+]2C1=Cc1ccc(CCC(=O)O)n1[B-]2(F)F [BAA-38a] | 2 nm | 579 nm | 581 nm | 33 | 0.07 |  |  |  |  | 
COc1cc(C=CC2=[N+]3C(=Cc4ccc(C(=Cc5ccc(OCc6cccc(C(F)(F)F)c6)c(OC)c5)CC(=O)O)n4[B-]3(F)F)C(C)=C2)ccc1OCc1cccc(C(F)(F)F)c1 [BAA-44b] | 18 nm | 582 nm | 600 nm | 43 | 0.28 |  |  |  |  | 
COc1ccc2c(c1)C(/C=C/C1=[N+]3C(=Cc4ccc(CCC(=O)O)n4[B-]3(F)F)C(C)=C1)C=N2 (stereo not shown) [BAA-6a] | 34 nm | 609 nm | 643 nm | 64 | 0.18 |  |  |  |  | 
COc1cc(/C=C(/CC(=O)O)c2ccc3n2[B-](F)(F)[N+]2=C(/C=C/c4cc(I)c(OC)c(OC)c4)C=C(C)C2=C3)cc(I)c1OC [BAA-3b] | 13 nm | 574 nm | 587 nm | 34 | 0.70 |  |  |  |  | 
CC1=CC(C=Cc2ccc(-c3cccnc3)cc2)=[N+]2C1=Cc1ccc(CCC(=O)O)n1[B-]2(F)F [BAA-37a] | 10 nm | 568 nm | 578 nm | 55 | 0.54 |  |  |  |  | 
COc1cc(C=CC2=[N+]3C(=Cc4ccc(C(=Cc5ccc(OCc6cccc(C(F)(F)F)c6)c(OC)c5)CC(=O)O)n4[B-]3(F)F)C(C)=C2)ccc1OCc1cccc(C(F)(F)F)c1 [BAA-40b] | 18 nm | 583 nm | 601 nm | 45 | 0.26 |  |  |  |  | 
COc1ccc(/C=C(/CC(=O)O)c2ccc3n2[B-](F)(F)[N+]2=C(/C=C/c4ccc(OC)c(C)c4OC)C=C(C)C2=C3)c(OC)c1C [BAA-7b] | 19 nm | 581 nm | 600 nm | 56 | 0.43 |  |  |  |  | 
CC1=CC(C=Cc2ccc(Oc3ccc([N+](=O)[O-])cc3)cc2)=[N+]2C1=Cc1ccc(CCC(=O)O)n1[B-]2(F)F [BAA-32a] | 10 nm | 574 nm | 584 nm | 32 | 0.23 |  |  |  |  | 
CCSc1ncc(/C=C/C2=[N+]3C(=Cc4ccc(CCC(=O)O)n4[B-]3(F)F)C(C)=C2)cn1 [BAA-20a] | 8 nm | 577 nm | 585 nm | 31 | 0.15 |  |  |  |  | 

More lines, main results first:

Stokes Shift (anhydrous DMSO) | λmax ABS [1] | λmax EM [1] | FWHM (full-width-at half max) (anhydrous DMSO, emission) | φfl (quantum yield) [2] | Structure (SMILES) | FWHM (full-width-at half max) | Stokes Shift | λmax ABS | λmax EM | φfl (quantum yield)
17 nm | 583 nm | 600 nm | 51 | 0.22 | COc1ccc(C=O)cc1OCCOc1cc(C=CC2=[N+]3C(=Cc4ccc(C(=Cc5ccc(OC)c(OCCOc6cc(C=O)ccc6OC)c5)CC(=O)O)n4[B-]3(F)F)C(C)=C2)ccc1OC [BAA-74b] |  |  |  |  | 
9 nm | 572 nm | 581 nm | 34 | 0.12 | CC1=CC(C=Cc2cc(-n3ccnc3)ccc2C)=[N+]2C1=Cc1ccc(C(=Cc3cc(-n4ccnc4)ccc3C)CC(=O)O)n1[B-]2(F)F [BAA-50b] |  |  |  |  | 
16 nm | 588 nm | 604 nm | 37 | 0.47 | CC1=CC(C=Cc2ccc(-c3cccs3)s2)=[N+]2C1=Cc1ccc(C(=Cc3ccc(-c4cccs4)s3)CC(=O)O)n1[B-]2(F)F [BAA-60b] |  |  |  |  | 
16 nm | 575 nm | 591 nm | 38 | 0.75 | CC1=CC(C=Cc2cnn(-c3ccccc3)c2C)=[N+]2C1=Cc1ccc(C(=Cc3cnn(-c4ccccc4)c3C)CC(=O)O)n1[B-]2(F)F [BAA-55b] |  |  |  |  | 
18 nm | 584 nm | 602 nm | 59 | 0.15 | COc1ccc(C=O)cc1OCCOc1cc(C=CC2=[N+]3C(=Cc4ccc(CCC(=O)O)n4[B-]3(F)F)C(C)=C2)ccc1OC [BAA-74a] |  |  |  |  | 
10 nm | 580 nm | 590 nm | 31 | 0.40 | CC1=CC(C=Cc2ccc(-c3ccc(F)c(F)c3)nc2)=[N+]2C1=Cc1ccc(CCC(=O)O)n1[B-]2(F)F [BAA-72a] |  |  |  |  | 
9 nm | 580 nm | 589 nm | 32 | 0.19 | CC1=CC(C=Cc2ccc(-c3ccc(OC(F)(F)F)cc3)nc2)=[N+]2C1=Cc1ccc(CCC(=O)O)n1[B-]2(F)F [BAA-71a] |  |  |  |  | 
15 nm | 592 nm | 607 nm | 39 | 0.43 | CC1=CC(C=Cc2cc3ccc(C)cc3nc2Cl)=[N+]2C1=Cc1ccc(CCC(=O)O)n1[B-]2(F)F [BAA-63a] |  |  |  |  | 
11 nm | 586 nm | 597 nm | 35 | 0.15 | CC1=CC(C=Cc2ccc(-c3cccs3)nc2)=[N+]2C1=Cc1ccc(C(=Cc3ccc(-c4cccs4)nc3)CC(=O)O)n1[B-]2(F)F [BAA-56b] |  |  |  |  | 
11 nm | 587 nm | 598 nm | 34 | 0.28 | CC1=CC(C=Cc2ccc(-c3ccc(Cl)s3)nc2)=[N+]2C1=Cc1ccc(CCC(=O)O)n1[B-]2(F)F [BAA-66a] |  |  |  |  | 
31 nm | 603 nm | 634 nm | 61 | 0.50 | CC1=CC(C=Cc2c[nH]c3c(OCc4ccccc4)cccc23)=[N+]2C1=Cc1ccc(CCC(=O)O)n1[B-]2(F)F [BAA-77a] |  |  |  |  | 
17 nm | 576 nm | 593 nm | 37 | 0.80 | CC1=CC(C=Cc2c[nH]nc2-c2ccc(Cl)cc2)=[N+]2C1=Cc1ccc(CCC(=O)O)n1[B-]2(F)F [BAA-64a] |  |  |  |  | 
10 nm | 571 nm | 581 nm | 30 | 0.53 | CC1=CC(C=Cc2cccc(-c3ccc(S(C)(=O)=O)cc3)n2)=[N+]2C1=Cc1ccc(CCC(=O)O)n1[B-]2(F)F [BAA-59a] |  |  |  |  | 
